Laboratory results from ChEMBL document CHEMBL3526058, “Investigating the enteroenteric recirculation of apixaban, a factor Xa inhibitor: administration of activated charcoal to bile duct-cannulated rats and dogs receiving an intravenous dose and use of drug transporter knockout rats” (Drug Metab Dispos, 2013).

Assays:
[1] = Half life in beagle dog at 5 mg/kg, po followed by activated charcoal administration 3 hrs post compound dosing; type: ADME, organism-based, Canis lupus familiaris; parameters: dose 5 mg/kg, route oral; conditions: in vivo
[2] = Apparent oral clearance in beagle dog at 5 mg/kg, po followed by activated charcoal administration 3 hrs post compound dosing; type: ADME, organism-based, Canis lupus familiaris; parameters: dose 5 mg/kg, route oral; conditions: in vivo
[3] = Oral steady-state volume of distribution in beagle dog at 5 mg/kg followed by activated charcoal administration 3 hrs post compound dosing; type: ADME, organism-based, Canis lupus familiaris; parameters: dose 5 mg/kg; conditions: in vivo, read-out: Vss/F
[4] = Mean residence time in beagle dog at 5 mg/kg, po followed by activated charcoal administration 3 hrs post compound dosing; type: ADME, organism-based, Canis lupus familiaris; parameters: dose 5 mg/kg, route oral; conditions: in vivo
[5] = Oral bioavailability in beagle dog at 5 mg/kg followed by activated charcoal administration 3 hrs post compound dosing; type: ADME, organism-based, Canis lupus familiaris; conditions: in vivo
Rattus norvegicus = species on record: Rattus norvegicus; experiment: Plasma clearance in rat relative to hepatic blood flow; type: ADME, organism-based; conditions: in vivo
Canis familiaris = species on record: Canis familiaris; experiment: Plasma clearance in dog relative to hepatic blood flow; type: ADME, organism-based, Canis lupus familiaris; conditions: in vivo
Homo sapiens [6] = species on record: Homo sapiens; experiment: Plasma clearance in human relative to hepatic blood flow; type: ADME, organism-based; conditions: in vivo
Homo sapiens [7] = experiment: Volume of distribution in human administered bid orally; type: ADME, organism-based; conditions: in vivo, po
[8] = Half life in human administered bid orally; type: ADME, organism-based; conditions: in vivo, po
[9] = AUC (0 to infinity) in wild-type Sprague-Dawley rat at 4 mg/kg, po; type: ADME, organism-based; parameters: time infinity, dose 4 mg/kg, route oral; conditions: plasma
[10] = Cmax in wild-type Sprague-Dawley rat at 4 mg/kg, po; type: ADME, organism-based; parameters: dose 4 mg/kg, route oral; conditions: in vivo
[11] = Half life in wild-type Sprague-Dawley rat at 4 mg/kg, po; type: ADME, organism-based; parameters: dose 4 mg/kg, route oral; conditions: in vivo
[12] = Apparent oral clearance in wild-type Sprague-Dawley rat at 4 mg/kg, po; type: ADME, organism-based; parameters: dose 4 mg/kg, route oral; conditions: in vivo
[13] = Oral steady-state volume of distribution in wild-type Sprague-Dawley rat at 4 mg/kg; type: ADME, organism-based; parameters: dose 4 mg/kg; conditions: in vivo, read-out: Vss/F
[14] = Mean residence time in wild-type Sprague-Dawley rat at 4 mg/kg, po; type: ADME, organism-based; parameters: dose 4 mg/kg, route oral; conditions: in vivo
[15] = Oral bioavailability in wild-type Sprague-Dawley rat at 4 mg/kg; type: ADME, organism-based; conditions: in vivo
[16] = AUC (0 to infinity) in P-gp-knockout Sprague-Dawley rat at 4 mg/kg, po; type: ADME, organism-based; parameters: time infinity, dose 4 mg/kg, route oral; conditions: plasma
[17] = Cmax in P-gp-knockout Sprague-Dawley rat at 4 mg/kg, po; type: ADME, organism-based; parameters: dose 4 mg/kg, route oral; conditions: in vivo
[18] = Half life in P-gp-knockout Sprague-Dawley rat at 4 mg/kg, po; type: ADME, organism-based; parameters: dose 4 mg/kg, route oral; conditions: in vivo
[19] = Apparent oral clearance in P-gp-knockout Sprague-Dawley rat at 4 mg/kg, po; type: ADME, organism-based; parameters: dose 4 mg/kg, route oral; conditions: in vivo
[20] = Oral steady-state volume of distribution in P-gp-knockout Sprague-Dawley rat at 4 mg/kg; type: ADME, organism-based; parameters: dose 4 mg/kg; conditions: in vivo, read-out: Vss/F
[21] = Mean residence time in P-gp-knockout Sprague-Dawley rat at 4 mg/kg, po; type: ADME, organism-based; parameters: dose 4 mg/kg, route oral; conditions: in vivo
[22] = Oral bioavailability in P-gp-knockout Sprague-Dawley rat at 4 mg/kg; type: ADME, organism-based; conditions: in vivo
[23] = AUC (0 to infinity) in BCRP-knockout Sprague-Dawley rat at 4 mg/kg, po; type: ADME, organism-based; parameters: time infinity, dose 4 mg/kg, route oral; conditions: plasma
[24] = Cmax in BCRP-knockout Sprague-Dawley rat at 4 mg/kg, po; type: ADME, organism-based; parameters: dose 4 mg/kg, route oral; conditions: in vivo
[25] = Half life in BCRP-knockout Sprague-Dawley rat at 4 mg/kg, po; type: ADME, organism-based; parameters: dose 4 mg/kg, route oral; conditions: in vivo
[26] = Apparent oral clearance in BCRP-knockout Sprague-Dawley rat at 4 mg/kg, po; type: ADME, organism-based; parameters: dose 4 mg/kg, route oral; conditions: in vivo
[27] = Oral steady-state volume of distribution in BCRP-knockout Sprague-Dawley rat at 4 mg/kg; type: ADME, organism-based; parameters: dose 4 mg/kg; conditions: in vivo, read-out: Vss/F
[28] = Mean residence time in BCRP-knockout Sprague-Dawley rat at 4 mg/kg, po; type: ADME, organism-based; parameters: dose 4 mg/kg, route oral; conditions: in vivo
[29] = Oral bioavailability in BCRP-knockout Sprague-Dawley rat at 4 mg/kg; type: ADME, organism-based; conditions: in vivo
[30] = AUC (0 to infinity) in Sprague-Dawley rat at 4 mg/kg, po administered 1 hr post GF-120918 treatment; type: ADME, organism-based; parameters: time infinity, dose 4 mg/kg, route oral; conditions: plasma, with GF-120918

With `COc1ccc(-n2nc(C(N)=O)c3c2C(=O)N(c2ccc(N4CCCCC4=O)cc2)CC3)cc1` the half-life [1] was 3 h, the CL/F [2] was 1.68 mL/min/kg and the Vd/F [3] was 0.5 L/kg. It also gave an MRT [4] of 5.3 h, a bioavailability [5] of 77% and a CL (Rattus norvegicus) of less than 5%. It also gave a CL (Canis familiaris) of less than 5%, a CL (Homo sapiens [6]) of less than 5% and a Vd (Homo sapiens [7]) of 0.3 L/kg. The half-life [8] was 12 h, the AUC(0-inf) [9] was 1390 ng·h/mL and the Cmax [10] was 420 ng/mL. The half-life [11] was 3.3 h, the CL/F [12] was 25 mL/min/kg and the Vd/F [13] was 5.8 L/kg. For the same compound, the MRT [14] was 3.8 h, the bioavailability [15] was 49% and the AUC(0-inf) [16] was 3340 ng·h/mL. For the same compound, the Cmax [17] was 940 ng/mL, the half-life [18] was 3.8 h and the CL/F [19] was 10 mL/min/kg. It also gave a Vd/F [20] of 2.4 L/kg, an MRT [21] of 3.8 h and a bioavailability [22] of 71%. It also gave an AUC(0-inf) [23] of 5710 ng·h/mL, a Cmax [24] of 1920 ng/mL and a half-life [25] of 2.5 h. It also gave a CL/F [26] of 6.67 mL/min/kg, a Vd/F [27] of 1.1 L/kg and an MRT [28] of 2.9 h. The bioavailability [29] was 122% and the AUC(0-inf) [30] was 6570 ng·h/mL.
